Test results from patent US6660255B1, “Inhibition of gene transcription by polyamide DNA-binding ligands” (California Institute of Technology, priority 1997, dated 2003).

What was measured:
TFIIIA = assay: footprint; conditions: DNase I; binding inhibited >90% by 5 nM polyamide ImPyPyPy-γ-ImPyPyPy-β-Dp
5′-TGTTACA-3′ = assay: Quantitative DNase I footprint titration, pJT2B2 fragment; type: binding
LEF-1 DBD = assay: footprint; conditions: 10 mM Hepes pH 7.5, 100 mM KCl
[1] = system: TBP binding and basal transcription at the CMV MIEP; assay: TBP binding and basal transcription, CMV MIEP; type: biochemical, human cytomegalovirus
Description: (§1) This method is a useful general approach for modulation of gene expression. For example, specific polyamides have been designed and synthesized that bind to double stranded DNA adjacent to the TATA element of the human cytomegalovirus major immediate early promoter (CMV MIEP). Polyamide CMV-1, ImImPyPy-γ-ImPyPyPy-β-Dp, binds the identified target sequence 5′-AGGTCT-3′, where the last T of this sequence is the 5′ T of the TATA element.

[2] = target: 5′-AGGTCT-3′ adjacent to the TATA box of the CMV MIEP; assay: Binding to the CMV MIEP next to the TATA element; set-up: species or system human cytomegalovirus; conditions: read-out: apparent dissociation constant
Description: as §1

[3] = target: 5′AGAATGA-3′ in the human Her-2/neu promoter; assay: Binding downstream of the Her-2/neu TATA element; conditions: read-out: apparent dissociation constant
Description: (§2) In another example, a polyamide was designed to bind immediately downstream of the TATA element found in the human Her-2/neu breast cancer oncogene promoter. […] Her-2/neu is recognized to be over-expressed in several cancers, including human gynecologic adenocarcinomas, including those of the ovary, endometrium, breast, fallopian tube and cervix (Cirisano, F. D., & Karlan, B. Y., J. Soc. Gynecol. Investig. 3 99-105 (1996)).

[4] = system: TBP binding and transcription at the Her-2/neu promoter; assay: TBP binding and transcription, Her-2/neu promoter; type: biochemical, human
Description: as §2

[5] = system: 5′-WGWWWCW-3′ target sequence; conditions: hairpin conformation; Trauger et al. 1996; cited from earlier work
TBP (rhTBP) = TBP (rhTBP) (Homo sapiens, UniProt P20226 P20226:1-339); assay: EMSA; not inhibited by HIV-1 polyamide; conditions: tags: Promega; label: 32P
HIV-1 TATA element = assay: TBP binding to the HIV-1 TATA element
Procedure: TBP binds the HIV-1 TATA element with a Kd of ˜1-3 nM.

Q: With 5S RNA gene internal control region as the molecule, how does the Kd (TFIIIA) read?
A: 1 nM

Q: For `CN(C)CCCNC(=O)CCNC(=O)c1cc(NC(=O)c2cc(NC(=O)CCNC(=O)c3cc(NC(=O)c4nc(NC(=O)CCCNC(=O)c5cc(NC(=O)c6cc(NC(=O)CCNC(=O)c7cc(NC(=O)c8nccn8C)cn7C)cn6C)cn5C)cn4C)cn3C)cn2C)cn1C` [polyamide 6, ImPy-β-PyPy-γ-ImPy-β-PyPy-β-Dp], which “Equilibrium association constants, 5′-aTGTTACAt-3′” value (5′-TGTTACA-3′; 24° C., pH 7.0, 10 mM Tris.HCl, 10 mM KCl, 10 mM MgCl2, 5 mM CaCl2, mean (SD)) is on record?
A: greater than 1×10^9 M^−1

Q: And the “fold higher affinity relative to unlinked analog” value (5′-TGTTACA-3′; polyamide 6 vs 9, polyamide 3 vs 7)?
A: ~1000 fold

Q: For HIV-1 LEF-1 site L2, which Kd (LEF-1 DBD; 1 mM MgCl2) is on record?
A: 5.8 nM

Q: With HIV-1 LEF-1 site L3 as the molecule, how does the Kd (LEF-1 DBD; 1 mM MgCl2) read?
A: 4.9 nM

Q: For HIV-1 enhancer LEF-1 site L1, which Kd (LEF-1 DBD; 1 mM MgCl2, 1 mM DTT, 1.5 nM stated in p144) is on record?
A: 1.4 nM

Q: With ImImPyPy-γ-ImPyPyPy-β-Dp [CMV-1] as the molecule, how does the “inhibition of TBP binding and basal transcription” value [1] read?
A: effective inhibitor

Q: What about the Kd [2] of the same molecule?
A: 1 nM

Q: For ImPy-β-PyIm-γ-PyPy-β-PyPy-β-Dp [Her2-1], which Kd [3] is on record?
A: 0.02 nM

Q: And the “inhibition of TBP binding and transcription” value [4]?
A: effective inhibitor

Q: With “ImPyPyPyPy-γ-ImPyPyPyPy-β-Dp [polyamide 3]” as the molecule, how does the “affinity for seven base pair target sequence” value [5] read?
A: subnanomolar

B1: AdML TATA region oligo (dsDNA)
DNA 1: GATCGGGGGCTATAAAAGGGGGTGGG
DNA 2: CCCACCCCCTTTTATAGCCCCCGATC
Q: Does B1 bind (TBP (rhTBP))?
A: binds

B2: TBP: TATA-box binding protein, recombinant human TBP (protein, UniProt P20226 1-339, looked up)
TATA-box-binding protein: MDQNNSLPPYAQGLASPQGAMTPGIPIFSPMMPYGTGLTPQPIQNTNSLSILEEQQRQQQQQQQQQQQQQQQQQQQQQQQQQQQQQQQQQQQQQQAVAAAAVQQSTSQQATQGTSGQAPQLFHSQTLTTAPLPGTTPLYPSPMTPMTPITPATPASESSGIVPQLQNIVSTVNLGCKLDLKTIALRARNAEYNPKRFAAVIMRIREPRTTALIFSSGKMVCTGAKSEEQSRLAARKYARVVQKLGFPAKFLDFKIQNMVGSCDVKFPIRLEGLVLTHQQFSSYEPELFPGLIYRMIKPRIVLLIFVSGKVVLTGAKVRAEIYEAFENIYPILKGFRKTT
Q: With B2 as the molecule, how does the Kd (HIV-1 TATA element) read?
A: 1 to 3 nM
